10 compounds from ChEMBL document CHEMBL2417377, “Hit-to-lead optimization and kinase selectivity of imidazo[1,2-a]quinoxalin-4-amine derived JNK1 inhibitors” (Bioorg Med Chem Lett, 2013) can be followed below.

Each structure is given as a SMILES string.

For test [1], the target named is Interleukin-1 receptor-associated kinase 1 (Homo sapiens) (UniProt P51617). The experiment in a line: Inhibition of IRAK1 in human PC3 cell lysates at 10 uM using desthiobiotin-tagged ATP probe AX9989 followed by trypsinization by LC/MS analysis. As to conditions: PC-3.
Sequence of Interleukin-1 receptor-associated kinase 1 (Homo sapiens) (P51617 whole entry, looked up): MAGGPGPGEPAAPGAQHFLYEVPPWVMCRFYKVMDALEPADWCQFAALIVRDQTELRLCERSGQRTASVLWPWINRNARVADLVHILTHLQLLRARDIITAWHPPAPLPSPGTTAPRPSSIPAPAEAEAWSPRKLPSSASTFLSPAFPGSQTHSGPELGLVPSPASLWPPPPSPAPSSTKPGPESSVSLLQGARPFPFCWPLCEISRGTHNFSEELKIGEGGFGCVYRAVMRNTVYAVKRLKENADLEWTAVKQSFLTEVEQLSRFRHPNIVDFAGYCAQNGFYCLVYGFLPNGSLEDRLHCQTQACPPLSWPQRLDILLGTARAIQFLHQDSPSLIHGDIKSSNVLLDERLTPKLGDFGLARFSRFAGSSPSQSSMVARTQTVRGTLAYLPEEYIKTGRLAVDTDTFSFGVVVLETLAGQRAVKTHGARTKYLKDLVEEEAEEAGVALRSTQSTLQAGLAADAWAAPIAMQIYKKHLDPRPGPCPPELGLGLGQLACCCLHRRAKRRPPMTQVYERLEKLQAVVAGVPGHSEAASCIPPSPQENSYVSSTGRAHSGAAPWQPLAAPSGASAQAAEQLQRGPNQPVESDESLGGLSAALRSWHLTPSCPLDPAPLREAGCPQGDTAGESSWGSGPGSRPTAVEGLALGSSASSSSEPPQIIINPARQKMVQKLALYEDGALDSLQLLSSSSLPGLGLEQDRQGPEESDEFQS
For test [2], the target named is T1, EKC/KEOPS complex subunit TP53RK (Homo sapiens) (UniProt Q96S44).
T1 sequence (whole entry): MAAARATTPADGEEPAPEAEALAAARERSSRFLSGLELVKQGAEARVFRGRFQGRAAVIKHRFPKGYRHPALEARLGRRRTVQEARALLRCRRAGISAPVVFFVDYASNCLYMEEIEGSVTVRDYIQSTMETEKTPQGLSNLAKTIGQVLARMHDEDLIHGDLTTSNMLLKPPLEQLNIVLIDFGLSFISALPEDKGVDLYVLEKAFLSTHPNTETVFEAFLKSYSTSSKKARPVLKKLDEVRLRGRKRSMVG
The experiment in a line: Inhibition of PRPK in human PC3 cell lysates at 10 uM using desthiobiotin-tagged ATP probe AX9989 followed by trypsinization by LC/MS analysis. Particulars: PC-3.

In test [3] the target is Serine/threonine-protein kinase PRP4 homolog (Homo sapiens) (UniProt Q13523). The experiment in a line: Inhibition of PRP4 in human PC3 cell lysates at 10 uM using desthiobiotin-tagged ATP probe AX9989 followed by trypsinization by LC/MS analysis. As to conditions: PC-3.
Test [4] concerns the target PI4KA/PI4KAP2 (Homo sapiens) (UniProt P42356+A4QPH2). The experiment in a line: Inhibition of PI4KA/PI4KAP2 in human PC3 cell lysates at 10 uM using desthiobiotin-tagged ATP probe AX9989 followed by trypsinization by LC/MS analysis. As to conditions: PC-3. Type of test: protein-complex assay.
Test [5] concerns the target Serine/threonine-protein kinase Nek7 (Homo sapiens) (UniProt Q8TDX7). The test can be described thus: Inhibition of NEK7 in human PC3 cell lysates at 10 uM using desthiobiotin-tagged ATP probe AX9989 followed by trypsinization by LC/MS analysis. As to conditions: PC-3.
In test [6] the test system is PC-3. The experiment in a line: Inhibition of KHS1 in human PC3 cell lysates at 10 uM using desthiobiotin-tagged ATP probe AX9989 followed by trypsinization by LC/MS analysis. Type of test: cell-free.
Test [7] concerns the target T2, Serine/threonine-protein kinase TAO1 (Homo sapiens) (UniProt Q7L7X3).
T2 sequence (whole entry): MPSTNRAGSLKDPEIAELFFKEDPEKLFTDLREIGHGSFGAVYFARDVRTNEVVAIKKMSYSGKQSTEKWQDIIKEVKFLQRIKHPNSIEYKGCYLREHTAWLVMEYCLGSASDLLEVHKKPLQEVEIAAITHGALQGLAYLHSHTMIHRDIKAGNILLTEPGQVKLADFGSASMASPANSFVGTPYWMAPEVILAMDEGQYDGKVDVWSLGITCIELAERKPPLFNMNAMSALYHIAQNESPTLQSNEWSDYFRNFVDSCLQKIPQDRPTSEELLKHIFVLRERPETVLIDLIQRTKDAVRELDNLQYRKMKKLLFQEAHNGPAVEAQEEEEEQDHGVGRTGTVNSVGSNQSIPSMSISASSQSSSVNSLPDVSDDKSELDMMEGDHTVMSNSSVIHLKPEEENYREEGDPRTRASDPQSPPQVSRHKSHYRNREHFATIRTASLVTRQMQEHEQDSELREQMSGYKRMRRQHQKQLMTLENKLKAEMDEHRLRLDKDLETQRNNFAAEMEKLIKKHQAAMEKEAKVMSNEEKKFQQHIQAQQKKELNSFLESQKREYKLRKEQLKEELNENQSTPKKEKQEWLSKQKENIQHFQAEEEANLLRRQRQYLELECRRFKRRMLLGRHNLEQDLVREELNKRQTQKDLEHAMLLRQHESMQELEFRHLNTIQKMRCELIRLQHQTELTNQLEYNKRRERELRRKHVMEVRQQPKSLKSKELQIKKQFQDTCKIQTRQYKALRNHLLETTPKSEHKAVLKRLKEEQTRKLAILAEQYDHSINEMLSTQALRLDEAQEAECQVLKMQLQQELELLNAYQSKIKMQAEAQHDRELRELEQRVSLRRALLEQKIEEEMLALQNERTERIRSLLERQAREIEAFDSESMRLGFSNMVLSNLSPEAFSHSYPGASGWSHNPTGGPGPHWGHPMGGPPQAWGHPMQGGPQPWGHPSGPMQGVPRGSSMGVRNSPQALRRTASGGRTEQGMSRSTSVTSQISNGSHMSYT
The test can be described thus: Inhibition of TAO1 in human PC3 cell lysates at 10 uM using desthiobiotin-tagged ATP probe AX9989 followed by trypsinization by LC/MS analysis. As to conditions: PC-3.

In test [8] the target is Dual specificity mitogen-activated protein kinase kinase 2 (Homo sapiens) (UniProt P36507). The experiment in a line: Inhibition of MAP2K2 in human PC3 cell lysates at 10 uM using desthiobiotin-tagged ATP probe AX9989 followed by trypsinization by LC/MS analysis. Particulars: PC-3.
Sequence of Dual specificity mitogen-activated protein kinase kinase 2 (Homo sapiens) (P36507 whole entry): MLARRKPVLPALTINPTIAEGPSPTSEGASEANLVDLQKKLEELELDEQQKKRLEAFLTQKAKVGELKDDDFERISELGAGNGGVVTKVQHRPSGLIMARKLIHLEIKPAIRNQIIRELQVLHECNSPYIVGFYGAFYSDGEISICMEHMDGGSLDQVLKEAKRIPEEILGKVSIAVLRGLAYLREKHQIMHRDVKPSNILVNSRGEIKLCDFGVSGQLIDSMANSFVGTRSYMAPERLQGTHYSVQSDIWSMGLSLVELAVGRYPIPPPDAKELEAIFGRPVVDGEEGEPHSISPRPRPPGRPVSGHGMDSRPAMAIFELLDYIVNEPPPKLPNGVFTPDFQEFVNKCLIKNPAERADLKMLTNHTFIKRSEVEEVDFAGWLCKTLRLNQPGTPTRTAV
Test [9] deals with Serine/threonine-protein kinase MARK2 (Homo sapiens) (UniProt Q7KZI7). The experiment in a line: Inhibition of MARK2 in human PC3 cell lysates at 10 uM using desthiobiotin-tagged ATP probe AX9989 followed by trypsinization by LC/MS analysis. As to conditions: PC-3.
Sequence of Serine/threonine-protein kinase MARK2 (Homo sapiens) (Q7KZI7 whole entry): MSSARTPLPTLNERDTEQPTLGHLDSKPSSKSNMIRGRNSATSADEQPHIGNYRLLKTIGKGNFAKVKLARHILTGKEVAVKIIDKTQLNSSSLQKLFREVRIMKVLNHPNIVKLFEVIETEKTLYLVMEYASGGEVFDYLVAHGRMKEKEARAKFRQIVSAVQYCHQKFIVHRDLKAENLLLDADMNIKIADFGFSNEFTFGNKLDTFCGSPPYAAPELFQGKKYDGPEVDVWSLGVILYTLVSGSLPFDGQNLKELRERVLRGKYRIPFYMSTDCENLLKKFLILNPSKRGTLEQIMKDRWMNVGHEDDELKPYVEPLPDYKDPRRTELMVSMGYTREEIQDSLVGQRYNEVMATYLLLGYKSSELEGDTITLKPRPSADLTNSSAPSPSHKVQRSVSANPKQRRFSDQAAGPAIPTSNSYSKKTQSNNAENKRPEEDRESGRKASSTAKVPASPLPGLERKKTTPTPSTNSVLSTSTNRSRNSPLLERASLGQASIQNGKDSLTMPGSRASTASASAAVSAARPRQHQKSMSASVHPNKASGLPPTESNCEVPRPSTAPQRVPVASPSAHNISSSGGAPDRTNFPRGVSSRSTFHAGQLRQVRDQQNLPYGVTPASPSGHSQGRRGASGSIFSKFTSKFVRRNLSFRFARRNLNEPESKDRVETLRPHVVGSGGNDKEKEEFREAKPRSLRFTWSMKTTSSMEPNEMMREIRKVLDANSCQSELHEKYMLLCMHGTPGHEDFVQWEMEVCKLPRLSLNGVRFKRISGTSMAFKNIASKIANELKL
For test [10], the target named is Serine/threonine-protein kinase Chk2 (Homo sapiens) (UniProt O96017). The test can be described thus: Inhibition of CHK2 in human PC3 cell lysates at 10 uM using desthiobiotin-tagged ATP probe AX9989 followed by trypsinization by LC/MS analysis. Particulars: PC-3.
Sequence of Serine/threonine-protein kinase Chk2 (Homo sapiens) (O96017 whole entry): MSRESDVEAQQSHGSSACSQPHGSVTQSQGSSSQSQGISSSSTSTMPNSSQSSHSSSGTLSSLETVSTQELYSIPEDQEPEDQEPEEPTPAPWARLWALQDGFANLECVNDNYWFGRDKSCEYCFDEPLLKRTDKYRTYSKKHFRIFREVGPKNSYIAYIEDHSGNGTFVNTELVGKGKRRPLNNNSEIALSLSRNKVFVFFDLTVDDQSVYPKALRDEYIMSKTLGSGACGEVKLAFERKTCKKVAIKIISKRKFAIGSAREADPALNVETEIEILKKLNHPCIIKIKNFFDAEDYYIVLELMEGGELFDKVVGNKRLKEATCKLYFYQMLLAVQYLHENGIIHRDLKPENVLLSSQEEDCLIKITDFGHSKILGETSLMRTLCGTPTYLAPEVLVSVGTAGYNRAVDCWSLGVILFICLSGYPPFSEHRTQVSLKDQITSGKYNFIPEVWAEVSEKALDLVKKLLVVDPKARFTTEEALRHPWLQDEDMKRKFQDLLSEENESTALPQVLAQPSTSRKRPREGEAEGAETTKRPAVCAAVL
Test [11] has as its target Serine/threonine-protein kinase Nek6 (Homo sapiens) (UniProt Q9HC98). The experiment in a line: Inhibition of NEK6 in human PC3 cell lysates at 10 uM using desthiobiotin-tagged ATP probe AX9989 followed by trypsinization by LC/MS analysis. Particulars: PC-3.
Test [12] concerns the target Mitogen-activated protein kinase kinase kinase 4 (Homo sapiens) (UniProt Q9Y6R4). The test can be described thus: Inhibition of MAP3K4 in human PC3 cell lysates at 10 uM using desthiobiotin-tagged ATP probe AX9989 followed by trypsinization by LC/MS analysis. As to conditions: PC-3.
Test [13] concerns the target Serine/threonine-protein kinase MRCK beta (Homo sapiens) (UniProt Q9Y5S2). The experiment in a line: Inhibition of MRCKbeta in human PC3 cell lysates at 10 uM using desthiobiotin-tagged ATP probe AX9989 followed by trypsinization by LC/MS analysis. Particulars: PC-3.

Sequence of Serine/threonine-protein kinase Nek6 (Homo sapiens) (Q9HC98 whole entry): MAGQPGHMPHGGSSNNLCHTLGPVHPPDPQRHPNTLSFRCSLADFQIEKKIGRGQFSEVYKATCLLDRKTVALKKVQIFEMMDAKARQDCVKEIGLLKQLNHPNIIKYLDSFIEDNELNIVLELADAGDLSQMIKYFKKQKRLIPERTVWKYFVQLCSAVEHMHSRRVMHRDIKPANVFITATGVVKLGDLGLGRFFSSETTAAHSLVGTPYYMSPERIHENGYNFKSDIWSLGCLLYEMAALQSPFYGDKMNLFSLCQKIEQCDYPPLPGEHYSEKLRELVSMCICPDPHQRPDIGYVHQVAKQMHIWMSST
Sequence of Serine/threonine-protein kinase Nek7 (Homo sapiens) (Q8TDX7 whole entry, looked up): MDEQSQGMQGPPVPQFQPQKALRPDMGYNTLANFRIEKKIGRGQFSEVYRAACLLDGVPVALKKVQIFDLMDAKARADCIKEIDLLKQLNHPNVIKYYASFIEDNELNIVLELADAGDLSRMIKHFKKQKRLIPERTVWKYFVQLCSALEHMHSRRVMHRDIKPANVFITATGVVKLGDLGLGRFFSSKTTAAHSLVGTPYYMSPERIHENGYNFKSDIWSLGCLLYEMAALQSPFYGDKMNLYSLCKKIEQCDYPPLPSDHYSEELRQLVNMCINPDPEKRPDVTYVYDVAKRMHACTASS
Sequence of Mitogen-activated protein kinase kinase kinase 4 (Homo sapiens) (Q9Y6R4 whole entry): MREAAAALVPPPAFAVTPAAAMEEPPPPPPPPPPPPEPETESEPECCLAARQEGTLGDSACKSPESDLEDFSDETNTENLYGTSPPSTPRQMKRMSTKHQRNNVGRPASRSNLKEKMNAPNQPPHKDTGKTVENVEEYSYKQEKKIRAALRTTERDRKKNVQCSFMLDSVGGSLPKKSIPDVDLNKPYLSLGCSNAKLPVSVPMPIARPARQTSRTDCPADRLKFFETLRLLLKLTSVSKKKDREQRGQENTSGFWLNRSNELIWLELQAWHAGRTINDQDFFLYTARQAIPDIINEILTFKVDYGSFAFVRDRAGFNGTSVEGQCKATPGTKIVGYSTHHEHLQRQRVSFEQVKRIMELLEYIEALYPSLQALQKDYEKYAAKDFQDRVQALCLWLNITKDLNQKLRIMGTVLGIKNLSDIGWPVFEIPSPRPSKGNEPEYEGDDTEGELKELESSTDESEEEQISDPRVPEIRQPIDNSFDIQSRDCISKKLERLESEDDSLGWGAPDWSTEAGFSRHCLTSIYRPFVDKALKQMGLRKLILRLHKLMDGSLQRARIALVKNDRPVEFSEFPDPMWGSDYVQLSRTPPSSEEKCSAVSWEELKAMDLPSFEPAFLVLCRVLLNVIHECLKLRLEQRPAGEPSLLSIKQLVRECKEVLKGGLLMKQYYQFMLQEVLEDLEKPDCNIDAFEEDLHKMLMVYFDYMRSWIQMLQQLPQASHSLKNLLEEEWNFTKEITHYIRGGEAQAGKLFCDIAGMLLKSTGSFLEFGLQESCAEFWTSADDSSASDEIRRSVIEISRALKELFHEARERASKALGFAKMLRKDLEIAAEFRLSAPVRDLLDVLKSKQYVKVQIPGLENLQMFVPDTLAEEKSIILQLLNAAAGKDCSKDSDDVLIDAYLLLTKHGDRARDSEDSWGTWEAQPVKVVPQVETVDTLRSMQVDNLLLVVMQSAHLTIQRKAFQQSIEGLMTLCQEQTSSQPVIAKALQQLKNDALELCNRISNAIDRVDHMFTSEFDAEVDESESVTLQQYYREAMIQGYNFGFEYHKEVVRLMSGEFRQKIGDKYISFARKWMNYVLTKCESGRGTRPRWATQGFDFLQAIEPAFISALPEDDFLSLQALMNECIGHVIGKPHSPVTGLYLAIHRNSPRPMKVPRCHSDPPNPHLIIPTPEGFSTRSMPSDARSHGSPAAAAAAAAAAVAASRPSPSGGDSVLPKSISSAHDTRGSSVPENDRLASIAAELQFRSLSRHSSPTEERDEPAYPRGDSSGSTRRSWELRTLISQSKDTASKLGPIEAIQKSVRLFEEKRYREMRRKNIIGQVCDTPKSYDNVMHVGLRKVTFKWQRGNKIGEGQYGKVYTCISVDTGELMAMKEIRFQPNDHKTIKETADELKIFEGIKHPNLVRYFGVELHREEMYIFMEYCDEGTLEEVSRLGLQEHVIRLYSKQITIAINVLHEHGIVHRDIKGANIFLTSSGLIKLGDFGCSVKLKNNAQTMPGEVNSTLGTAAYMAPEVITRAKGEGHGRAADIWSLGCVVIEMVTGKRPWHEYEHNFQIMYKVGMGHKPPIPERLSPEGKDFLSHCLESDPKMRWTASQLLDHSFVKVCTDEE

On to `CC[C@@H](NC(=O)c1ccc2nc(N[C@H]3CC[C@H](O)CC3)c3nccn3c2c1)c1ccccc1`, for which the inhibition in test [1], in test [2], in test [3], in [4], in test [5] and in test [6] was below 35% in each case. Moreover, the inhibition in [7], in [8], in test [9], in test [10], in test [11] and in [12] was below 35% in each case. Besides, the inhibition – broadly, the relative decrease from the control value, in per cent – in test [13] was below 35%.
With `C[C@@H](NC(=O)c1ccc2nc(N[C@H]3CC[C@H](O)CC3)c3nccn3c2c1)c1ccccc1`, the inhibition in [1], in test [2], in test [3], in test [4], in test [5] and in test [6] was below 35% throughout. For the same compound, the inhibition is below 35% in test [7]; below 35% in test [8]; below 35% in test [9]; 36.9% in test [10]; below 35% in test [11]; below 35% in test [12]. In test [13], this compound registered an inhibition below 35%.
Take `CCC[C@@H](NC(=O)c1ccc2nc(N[C@H]3CC[C@H](O)CC3)c3nccn3c2c1)c1ccccc1`: the inhibition in test [1], in test [2], in [3], in [4], in test [5] and in test [6] was below 35% throughout. Further, the inhibition in [7], in test [8], in [9], in test [10], in test [11] and in test [12] was below 35% in each case. Also, in test [13], the inhibition was below 35%.
In the case of `C[C@H](NC(=O)c1ccc2nc(N[C@H]3CC[C@H](O)CC3)c3nccn3c2c1)c1ccccc1`, the inhibition in test [1], in test [2], in [3], in [4], in test [5] and in test [6] was below 35% throughout. In addition, the inhibition in [7], in test [8], in test [9], in test [10], in [11] and in test [12] was below 35% in each case. The compound also came in with an inhibition in test [13] below 35%.
Take `O=C(NC1(c2ccccc2)CC1)c1ccc2nc(N[C@H]3CC[C@H](O)CC3)c3nccn3c2c1`: the inhibition in test [1], in test [2], in test [3], in test [4], in test [5] and in test [6] was below 35% in each case. Moreover, the inhibition in test [7], in test [8], in test [9], in test [10], in test [11] and in test [12] was below 35% throughout. The compound also displayed an inhibition in test [13] below 35%.
Take `NC(=O)c1ccc2nc(N[C@H]3CC[C@H](O)CC3)c3nccn3c2c1`: the inhibition in test [1], in test [2], in test [3], in test [4], in test [5] and in test [6] was below 35% in each case. In addition, the inhibition in test [7], in [8], in test [9], in test [10], in test [11] and in [12] was below 35% in each case. Moreover, the inhibition in test [13] is below 35%.
With `CC(C)(NC(=O)c1ccc2nc(N[C@H]3CC[C@H](O)CC3)c3nccn3c2c1)c1ccccc1`, the inhibition in test [1], in [2], in [3], in test [4], in test [5] and in test [6] was below 35% each time. Also, the inhibition in test [7], in test [8], in test [9], in test [10], in test [11] and in test [12] was below 35% each time. For the same compound, in test [13], the inhibition was below 35%.
With `O=C(N[C@H](CO)c1ccccc1)c1ccc2nc(N[C@H]3CC[C@H](O)CC3)c3nccn3c2c1`, the inhibition in [1], in [2], in test [3], in test [4], in test [5] and in [6] was below 35% throughout. The inhibition in test [7] was below 35%; in test [8] it was below 35%; in test [9], below 35%; in test [10] it was 45.6%; in [11], below 35%; in test [12], below 35%. This compound gave an inhibition in [13] below 35%.
As to `O=C(NC1(Cc2ccc(F)cc2)CC1)c1ccc2nc(N[C@H]3CC[C@H](O)CC3)c3nccn3c2c1`, the inhibition in test [1], in test [2], in test [3], in test [4], in [5] and in [6] was below 35% throughout. In addition, the inhibition in [7], in test [8], in [9], in test [10], in [11] and in test [12] was below 35% each time. In addition, in [13], the inhibition is below 35%.
On to `O=C(NC1(c2ccc(F)cc2)CC1)c1ccc2nc(N[C@H]3CC[C@H](O)CC3)c3nccn3c2c1`, for which the inhibition in test [1], in [2], in [3], in test [4], in [5] and in test [6] was below 35% in each case. For the same compound, the inhibition in test [7], in [8], in [9], in test [10], in [11] and in test [12] was below 35% in each case. Moreover, in [13], the inhibition was below 35%.
